# Data: patent publication US7812008B2, “9-substituted tetracyclines” (Wyeth LLC, priority 2005, dated 2010)
# Where two headings read alike, the source gives them in different places.
# What was measured:
# [1] = tested on: S. aureus GC6466 (tet(M)); assay: MIC broth microdilution, S. aureus GC6466 (tet(M)); format: cell-based; conditions: MHBII, 18-22 hours at 35° C.
# Experimental: (§1) Methods for in Vitro Antibacterial Evaluation
# (§2) The minimum inhibitory concentration (MIC)
# (§3) Antimicrobial susceptibility testing. The in vitro activities of representative examples of antibiotics of the invention are determined by the broth microdilution method as recommended by the National Committee for Clinical Laboratory Standards (NCCLS) (1). Mueller-Hinton II broth (MHBII)(BBL Cockeysville, Md.) is the medium employed in the testing procedures. Microtiter plates containing serial dilutions of each antimicrobial agent are inoculated with each organism to yield the appropriate density (10^5 CFU/ml) in a 100 μl final volume. The plates are incubated for 18-22 hours at 35° C. in ambient air. […] NCCLS. 2000. Methods for Dilution Antimicrobial Susceptibility Tests for Bacteria That Grow Aerobically; Approved Standards: M7-A5, vol. 20. National Committe for Clinical Laboratory Standards, Wayne, Pa.
# [2] = tested on: E. faecalis GC2267 (tet(L) + (M) + (S)); assay: MIC broth microdilution, E. faecalis GC2267 (tet(L) + (M) + (S)); format: cell-based; conditions: MHBII, 18-22 hours at 35° C.
# Experimental: as §1, §2, §3
# E. coli GC1073 (tet(B)) = assay: MIC broth microdilution, E. coli GC1073 (tet(B)); format: cell-based; conditions: MHBII, 18-22 hours at 35° C.
# Experimental: as §1, §2, §3
# [3] = tested on: H. influenzae<> GC6896 (ATCC Control); assay: MIC broth microdilution, H. influenzae GC6896 (ATCC Control); format: cell-based; conditions: 18-22 hours at 35° C.
# Experimental: as §1, §2, §3
# [4] = tested on: S. aureus GC1079 (tet(K)); assay: MIC broth microdilution, S. aureus GC1079 (tet(K)); format: cell-based; conditions: MHBII, 18-22 hours at 35° C.
# Experimental: as §1, §2, §3
# [5] = tested on: E. faecalis GC2242 (Van-resistant); assay: MIC broth microdilution, E. faecalis GC2242 (Van-resistant); format: cell-based; conditions: MHBII, 18-22 hours at 35° C.
# Experimental: as §1, §2, §3
# [6] = tested on: S. aureus GC1131 (Clinical); assay: MIC broth microdilution, S. aureus GC1131 (Clinical); format: cell-based; conditions: MHBII, 18-22 hours at 35° C.
# Experimental: as §1, §2, §3
# [7] = tested on: S. pneumoniae* GC1894 (Clinical); assay: MIC broth microdilution, S. pneumoniae GC1894 (Clinical); format: cell-based; conditions: 18-22 hours at 35° C.
# Experimental: as §1, §2, §3
# [8] = tested on: E. coli GC4559 (parent GC4560); assay: MIC broth microdilution, E. coli GC4559 (parent GC4560); format: cell-based; conditions: MHBII, 18-22 hours at 35° C.
# Experimental: as §1, §2, §3
# [9] = tested on: Staphylococcal aureus Smith M P; assay: In vivo antibacterial evaluation, acute lethal infection in mice; conditions: Mus musculus; single oral dose 30 minutes after intraperitoneal challenge; female CD-1 mice; 7 day survival ratios, 3 tests pooled; read-out: SOD* ED50
# Experimental: In Vivo Antibacterial Evaluation: The therapeutic effects of representative examples of the invention are determined against acute lethal infection with Staphylococcal aureus Smith M P, Female mice, strain CD-1 (Charles River Laboratoties), ca. 20 grams, are challenged by an intraperitoneal injection of sufficient bacteria (suspended in broth or hog mucin) to kill non-treated controls within 24-28 hours. Antibacterial agents, contained in 0.5 ml of 0.2% aqueous agar, are administered subcutaneously or orally 30 minutes after injection. When an oral dosing schedule is used, animal are deprived of food for 5 hours before and 2 hours after injection. Five mice are treated at each dose level. The 7 day survival ratios from 3 separate tests are pooled for calculation of median effective dose (ED50).
# [10] = tested on: S. pyogenes* GC4563 (Clinical); assay: MIC broth microdilution, S. pyogenes GC4563 (Clinical); format: cell-based; conditions: 18-22 hours at 35° C.
# Experimental: as §1, §2, §3
# [11] = tested on: M. catarrhalis* GC6907 (Clinical); assay: MIC broth microdilution, M. catarrhalis GC6907 (Clinical); format: cell-based; conditions: 18-22 hours at 35° C.
# Experimental: as §1, §2, §3
# [12] = tested on: E. coli GC4560 (IMP mutant); assay: MIC broth microdilution, E. coli GC4560 (IMP mutant); format: cell-based; conditions: MHBII, 18-22 hours at 35° C.
# Experimental: as §1, §2, §3
# [13] = tested on: S. pneumoniae* GC4465 (Clinical); assay: MIC broth microdilution, S. pneumoniae GC4465 (Clinical); format: cell-based; conditions: 18-22 hours at 35° C.
# Experimental: as §1, §2, §3
# [14] = tested on: S. aureus GC6467 (tet(M) + (K)); assay: MIC broth microdilution, S. aureus GC6467 (tet(M) + (K)); format: cell-based; conditions: MHBII, 18-22 hours at 35° C.
# Experimental: as §1, §2, §3
# [15] = tested on: Staphylococcal aureus Smith M P; assay: MIC reported in Table 2 beside the in vivo ED50; format: cell-based; conditions: Staphylococcus aureus, infecting strain S. aureus Smith MP
# Experimental: Antimicrobial susceptibility testing. The in vitro activities of representative examples of antibiotics of the invention are determined by the broth microdilution method as recommended by the National Committee for Clinical Laboratory Standards (NCCLS) (1). Mueller-Hinton II broth (MHBII)(BBL Cockeysville, Md.) is the medium employed in the testing procedures. Microtiter plates containing serial dilutions of each antimicrobial agent are inoculated with each organism to yield the appropriate density (10^5 CFU/ml) in a 100 μl final volume. The plates are incubated for 18-22 hours at 35° C. in ambient air. […] NCCLS. 2000. Methods for Dilution Antimicrobial Susceptibility Tests for Bacteria That Grow Aerobically; Approved Standards: M7-A5, vol. 20. National Committe for Clinical Laboratory Standards, Wayne, Pa. In Vivo Antibacterial Evaluation: The therapeutic effects of representative examples of the invention are determined against acute lethal infection with Staphylococcal aureus Smith M P, Female mice, strain CD-1 (Charles River Laboratoties), ca. 20 grams, are challenged by an intraperitoneal injection of sufficient bacteria (suspended in broth or hog mucin) to kill non-treated controls within 24-28 hours. Antibacterial agents, contained in 0.5 ml of 0.2% aqueous agar, are administered subcutaneously or orally 30 minutes after injection. When an oral dosing schedule is used, animal are deprived of food for 5 hours before and 2 hours after injection. Five mice are treated at each dose level. The 7 day survival ratios from 3 separate tests are pooled for calculation of median effective dose (ED50).
# [16] = tested on: S. aureus GC2216 (ATCC Control); assay: MIC broth microdilution, S. aureus GC2216 (ATCC Control); format: cell-based; conditions: MHBII, 18-22 hours at 35° C.
# Experimental: as §1, §2, §3
# [17] = tested on: C. albicans GC3066 ATCC (Control); assay: MIC broth microdilution, C. albicans GC3066 ATCC (Control); format: cell-based; conditions: 18-22 hours at 35° C.
# Experimental: as §1, §2, §3
# E. coli GC2270 (tet(M)) = assay: MIC broth microdilution, E. coli GC2270 (tet(M)); format: cell-based; conditions: MHBII, 18-22 hours at 35° C.
# Experimental: as §1, §2, §3
# [18] = tested on: S. aureus GC4536 (Smith MP -In Vivo); assay: MIC broth microdilution, S. aureus GC4536 (Smith MP -In Vivo); format: cell-based; conditions: MHBII, 18-22 hours at 35° C.
# Experimental: as §1, §2, §3
# [19] = tested on: E. faecalis GC4555 (ATCC Control); assay: MIC broth microdilution, E. faecalis GC4555 (ATCC Control); format: cell-based; conditions: MHBII, 18-22 hours at 35° C.
# Experimental: as §1, §2, §3
# [20] = tested on: E. coli GC2203 (ATCC Control); assay: MIC broth microdilution, E. coli GC2203 (ATCC Control); format: cell-based; conditions: MHBII, 18-22 hours at 35° C.
# Experimental: as §1, §2, §3
# [21] = tested on: Staphylococcal aureus Smith M P; assay: In vivo antibacterial evaluation, acute lethal infection in mice; conditions: Mus musculus, iv, 168 h; single intraveneous dose; female CD-1 mice; 7 day survival ratios, 3 tests pooled; read-out: SIV* ED50
Structure (SMILES),minimum inhibitory concentration (MIC) [1],minimum inhibitory concentration (MIC) [2],minimum inhibitory concentration (MIC) (E. coli GC1073 (tet(B))),minimum inhibitory concentration (MIC) [3],minimum inhibitory concentration (MIC) [4],minimum inhibitory concentration (MIC) [5],minimum inhibitory concentration (MIC) [6],minimum inhibitory concentration (MIC) [7],minimum inhibitory concentration (MIC) [8],ED50 [9] [mg/kg],minimum inhibitory concentration (MIC) [10],minimum inhibitory concentration (MIC) [11],minimum inhibitory concentration (MIC) [12],minimum inhibitory concentration (MIC) [13],minimum inhibitory concentration (MIC) [14],MIC [15] [µg/mL],minimum inhibitory concentration (MIC) [16],minimum inhibitory concentration (MIC) [17],minimum inhibitory concentration (MIC) (E. coli GC2270 (tet(M))),minimum inhibitory concentration (MIC) [18],other results
"CON(C)CC(=O)Nc1cc(N(C)C)c2c(c1O)C(=O)C1=C(O)[C@]3(O)C(=O)C(C(N)=O)=C(O)[C@@H](N(C)C)[C@@H]3C[C@@H]1C2 [Example 7, (4S,4aS,5aR,12aS)-4,7-bis(dimethylamino)-3,10,12,12a-tetrahydroxy-9-[(N-methoxy-N-methylglycyl)amino]-1,11-dioxo-1,4,4a,5,5a,6,11,12a-octahydrotetracene-2-carboxamide]",2,8,>64,4,32,2,4,0.50,>64,16 to 32,0.25,0.50,1,0.50,>64,2,2,>64,>64,2,minimum inhibitory concentration (MIC) [19]: 1; minimum inhibitory concentration (MIC) [20]: >64; ED50 [21]: 0.5 to 2 mg/kg
"CN(C)c1cc(NC(=O)CN2CCCCO2)c(O)c2c1C[C@H]1C[C@H]3[C@H](N(C)C)C(O)=C(C(N)=O)C(=O)[C@@]3(O)C(O)=C1C2=O [Example 8, (4S,4aS,5aR,12aS)-4,7-bis(dimethylamino)-3,10,12,12a-tetrahydroxy-9-[(1,2-oxazinan-2-ylacetyl)amino]-1,11-dioxo-1,4,4a,5,5a,6,11,12a-octahydrotetracene-2-carboxamide]",2,8,>64,64,16,2,4,0.50,>64,3.59,1,1,2,1,64,2,2,>64,>64,2,minimum inhibitory concentration (MIC) [19]: 2; minimum inhibitory concentration (MIC) [20]: >64; ED50 [21]: 0.56 mg/kg
